The values below come from patent US11104631B1, “Isopentenyl chalcone compound and preparation method thereof” (SOUTH CHINA BOTANICAL GARDEN, CHINESE ACADEMY OF SCIENCES, priority 2018, dated 2021).

Molecules are shown by their SMILES.

Data set [1] is described as follows: DPPH radical scavenging assay. The settings on record: 0.2 mM DPPH in ethanol, dark, room temperature, 30 minutes, absorbance at 517 nm; read-out: IC50 value against DPPH radicals. The class given is biochemical. As to the method: DPPH is a stable free radical. When a free radical scavenger is present, light absorption of DPPH will be reduced when the single electron is scavenged, which allows to evaluate free radical scavenging ability of the substance and accordingly determine antioxidant ability thereof. The DPPH radical scavenging ability of the compound 2,2′,4,4′-tetrahydroxy-3′-(2″,3″-dihydroxy-3″-methylbutyl)chalcone was measured through the DPPH radical scavenging assay, so as to evaluate the antioxidant ability of the compound. The assay comprised the following steps: 1,1-Diphenyl-2-picrylhydrazyl (DPPH) was dissolved in absolute ethanol to obtain a solution with a concentration of 0.2 mM. The compound 2,2′,4,4′-tetrahydroxy-3′-(2″,3″-dihydroxy-3″-methylbutyl)chalcone was dissolved in absolute ethanol. 80 μL of the ethanol solution of 2,2′,4,4′-tetrahydroxy-3′-(2″,3″-dihydroxy-3″-methylbutyl)chalcone and 160 μL of the 0.2 mM DPPH ethanol solution were mixed and the mixture was placed in dark at room temperature for 30 minutes. Then, light absorbance at 517 nm was measured using a microplate reader (SpectraMax 190, Molecular Devices, USA), and Vc was employed as a positive control.

A further data set can be described thus: Solubility in methanol. The class given is physicochemical.

In the case of `O=C1O[C@H]([C@@H](O)CO)C(O)=C1O` [Vc, vitamin C, reference compound], in data set [1], the IC50 turned out to be 100 µM. Turning to `CC(C)(O)C(O)Cc1c(O)ccc(C(=O)/C=C/c2ccc(O)cc2O)c1O` (stereo not drawn) [compound 1, 2,2′,4,4′-tetrahydroxy-3′-(2″,3″-dihydroxy-3″-methylbutyl)chalcone], the solubility in methanol result in the data set “Solubility in methanol” was “easily soluble in methanol”. Further, in data set [1], the IC50 turned out to be 27.6 µM.
